Measurements published in US11273153B2, “MAPK inhibitors” (EverBrilliant Pharma Pty Ltd, priority 2014, dated 2022).
Read-outs that look alike come from different tables or passages of the source.

Columns and labels:
[1] = molecular target: inactive non-phosphorylated p38α MAPK (Homo sapiens (Human), UniProt Q16539); test: Fluorescence polarisation (FP) binding assay, inactive enzyme
Procedure: (§1) A number of compounds were also assessed for the inhibition of p38α MAPK activity (www.kinase-screen.mrc.ac.uk) in which a radioactive (^33P-labelled ATP) filter binding assay was used to directly measure phosphate incorporation. Table 1 summarises the binding affinities of the synthesised compounds to both forms of the enzyme as well as the inhibitory activities against p38α MAPK. By way of enabling a comparison with a non-thiophene compound the biological testing was also carried out for known inhibitor RWJ67657, shown in table 1.
(§2) FP signals were measured with a PHERAstar microplate reader (BMG Labtech) using black, low-binding half-area 96 well plates (Corning). Each binding data point was carried out in duplicate or triplicate. Data were recorded in millipolarisation (mP) units and measured at an excitation wavelength of 485 nm and an emission wavelength of 520 nm. Tris(hydroxymethyl)aminomethane (Tris) assay buffer was used in all binding experiments and consisted of 10 mM Tris, […] potassium chloride, and 3.5 mM 3-((3-cholamidopropyl)dimethylammonium)-1-propanesulfonate (Chaps) at pH 8.0.
(§3) Test compounds were prepared from dimethylsulfoxide stocks (10 mM). […] Plates were incubated at room temperature for 1 hour and FP signals were recorded. For binding experiments to active p38α MAPK, the FP signals were recorded after 2 hours incubation at room temperature. Data is represented as mean±SEM from two to three independent experiments.

[2] = molecular target: active phosphorylated p38α MAPK (Homo sapiens (Human), UniProt Q16539); test: Fluorescence polarisation (FP) binding assay, active enzyme
active phosphorylated p38α MAPK, sequence (Q16539 whole entry): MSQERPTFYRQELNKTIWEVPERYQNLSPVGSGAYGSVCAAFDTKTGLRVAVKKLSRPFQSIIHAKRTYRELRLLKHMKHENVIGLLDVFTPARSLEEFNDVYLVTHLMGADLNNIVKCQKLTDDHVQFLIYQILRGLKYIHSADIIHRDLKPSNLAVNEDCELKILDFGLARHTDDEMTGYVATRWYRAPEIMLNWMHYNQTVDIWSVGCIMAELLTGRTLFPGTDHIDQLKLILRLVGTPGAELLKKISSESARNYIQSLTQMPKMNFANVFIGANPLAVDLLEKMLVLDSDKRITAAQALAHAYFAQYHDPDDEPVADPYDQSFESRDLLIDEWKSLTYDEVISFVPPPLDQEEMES
Procedure: as §1, §2, §3

[3] = Table 5, read-out: Ki ± SEM (μM) to inactive p38α MAPK
[4] = Table 6, read-out: Ki ± SEM (μM) to inactive p38α
[5] = Table 6, read-out: Ki ± SEM (μM) to active p38α

inactive non-phosphorylated p38α MAPK, sequence (Q16539 whole entry): as above

Ki [1, 3] [µM] | Ki [1, 4] [µM] | Ki ([2]; Table 5, read-out: Ki ± SEM (μM) to active p38α MAPK) [µM] | Ki [2, 5] [µM] | Compound
5 ± 0.4 | 5 ± 0.4 | 0.6 ± 0.1 | 0.6 ± 0.1 | Fc1ccc(-c2sccc2-c2ccncc2)cc1 [Compound 3.2, 4-(2-(4-Fluorophenyl)thiophen-3-yl)pyridine]
 | > 10 |  | > 10 | Fc1ccc(-c2sc(I)c(I)c2-c2ccncc2)cc1 [Compound 3.3, 4-(2-(4-Fluorophenyl)-4,5-diiodothiophen-3-yl)pyridine]
 | > 10 |  | 8.7 | COC(=O)c1ccccc1-c1c(C#CCCO)sc(-c2ccc(F)cc2)c1-c1ccncc1 [Compound 3.28, Methyl 2-(5-(4-fluorophenyl)-2-(4-hydroxybut-1-yn-1-yl)-4-(pyridin-4-yl)thiophen-3-yl)benzoate]
 | > 10 |  | 3 | COC(=O)c1cccc(-c2c(C#CCCO)sc(-c3ccc(F)cc3)c2-c2ccncc2)c1 [Compound 3.29, Methyl 3-(5-(4-fluorophenyl)-2-(4-hydroxybut-1-yn-1-yl)-4-(pyridin-4-yl)thiophen-3-yl)benzoate]
 | > 10 |  | > 10 | COC(=O)c1ccc(-c2c(C#CCCO)sc(-c3ccc(F)cc3)c2-c2ccncc2)cc1 [Compound 3.30, Methyl 4-(5-(4-fluorophenyl)-2-(4-hydroxybut-1-yn-1-yl)-4-(pyridin-4-yl)thiophen-3-yl)benzoate]
 | > 10 |  | 7.1 | O=C(O)c1cccc(-c2c(C#CCCO)sc(-c3ccc(F)cc3)c2-c2ccncc2)c1 [Compound 3.31, 3-(5-(4-Fluorophenyl)-2-(4-hydroxybut-1-yn-1-yl)-4-(pyridin-4-yl)thiophen-3-yl)benzoic acid]
 | > 10 |  | > 10 | O=C(O)c1ccc(-c2c(C#CCCO)sc(-c3ccc(F)cc3)c2-c2ccncc2)cc1 [Compound 3.32, 4-(5-(4-Fluorophenyl)-2-(4-hydroxybut-1-yn-1-yl)-4-(pyridin-4-yl)thiophen-3-yl)benzoic acid]
 | > 10 |  | 1.3 ± 0.2 | OCCC#Cc1sc(-c2ccc(F)cc2)c(-c2ccncc2)c1-c1cccc(CO)c1 [Compound 3.33, 4-(5-(4-Fluorophenyl)-3-(3-(hydroxymethyl)phenyl)-4-(pyridin-4-yl)thiophen-2-yl)but-3-yn-1-ol]
 | > 10 |  | 3.5 | OCCC#Cc1sc(-c2ccc(F)cc2)c(-c2ccncc2)c1-c1ccc(CO)cc1 [Compound 3.34, 4-(5-(4-Fluorophenyl)-3-(4-(hydroxymethyl)phenyl)-4-(pyridin-4-yl)thiophen-2-yl)but-3-yn-1-ol]
 | > 10 |  | 2.2 ± 0.3 | NC(=O)c1cccc(-c2c(C#CCCO)sc(-c3ccc(F)cc3)c2-c2ccncc2)c1 [Compound 3.35, 3-(5-(4-Fluorophenyl)-2-(4-hydroxybut-1-yn-1-yl)-4-(pyridin-4-yl)thiophen-3-yl)benzamide]
 | > 10 |  | 2 ± 1 | NC(=O)c1ccc(-c2c(C#CCCO)sc(-c3ccc(F)cc3)c2-c2ccncc2)cc1 [Compound 3.36, 4-(5-(4-Fluorophenyl)-2-(4-hydroxybut-1-yn-1-yl)-4-(pyridin-4-yl)thiophen-3-yl)benzamide]
 | 1.9 ± 0.2 |  | 2 ± 1 | O=C(NCCO)c1cccc(-c2c(C#CCCO)sc(-c3ccc(F)cc3)c2-c2ccncc2)c1 [Compound 3.37, 3-(5-(4-Fluorophenyl)-2-(4-hydroxybut-1-yn-1-yl)-4-(pyridin-4-yl)thiophen-3-yl)-N-(2-hydroxyethyl)benzamide]
 | > 10 |  | 1.7 ± 0.2 | O=C(NCCO)c1ccc(-c2c(C#CCCO)sc(-c3ccc(F)cc3)c2-c2ccncc2)cc1 [Compound 3.38, 4-(5-(4-Fluorophenyl)-2-(4-hydroxybut-1-yn-1-yl)-4-(pyridin-4-yl)thiophen-3-yl)-N-(2-hydroxyethyl)benzamide]
 | > 10 |  | 3.2 | Nc1cccc(-c2c(C#CCCO)sc(-c3ccc(F)cc3)c2-c2ccncc2)c1 [Compound 3.39, 4-(3-(3-Aminophenyl)-5-(4-fluorophenyl)-4-(pyridin-4-yl)thiophen-2-yl)but-3-yn-1-ol]
 | > 10 |  | > 10 | Nc1ccc(-c2c(C#CCCO)sc(-c3ccc(F)cc3)c2-c2ccncc2)cc1 [Compound 3.40, 4-(3-(4-Aminophenyl)-5-(4-fluorophenyl)-4-(pyridin-4-yl)thiophen-2-yl)but-3-yn-1-ol]
 | 2.6 ± 0.6 |  | 2 ± 0.1 | CC(=O)Nc1cccc(-c2c(C#CCCO)sc(-c3ccc(F)cc3)c2-c2ccncc2)c1 [Compound 3.41, N-(3-(5-(4-fluorophenyl)-2-(4-hydroxybut-1-yn-1-yl)-4-(pyridin-4-yl)thiophen-3-yl)phenyl)acetamide]

Ki [1, 3] [µM] | Ki [1, 4] [µM] | Ki ([2]; Table 5, read-out: Ki ± SEM (μM) to active p38α MAPK) [µM] | Ki [2, 5] [µM] | Compound
 | > 10 |  | > 10 | CC(=O)Nc1ccc(-c2c(C#CCCO)sc(-c3ccc(F)cc3)c2-c2ccncc2)cc1 [Compound 3.42, N-(4-(5-(4-fluorophenyl)-2-(4-hydroxybut-1-yn-1-yl)-4-(pyridin-4-yl)thiophen-3-yl)phenyl)acetamide]
 | > 10 |  | > 10 | O=C(Nc1cccc(-c2c(C#CCCO)sc(-c3ccc(F)cc3)c2-c2ccncc2)c1)c1ccccc1 [Compound 3.43, N-(3-(5-(4-fluorophenyl)-2-(4-hydroxybut-1-yn-1-yl)-4-(pyridin-4-yl)thiophen-3-yl)phenyl)benzamide]
 | > 10 |  | > 10 | O=C(Nc1ccc(-c2c(C#CCCO)sc(-c3ccc(F)cc3)c2-c2ccncc2)cc1)c1ccccc1 [Compound 3.44, N-(4-(5-(4-fluorophenyl)-2-(4-hydroxybut-1-yn-1-yl)-4-(pyridin-4-yl)thiophen-3-yl)phenyl)benzamide]
 | > 10 |  | > 10 | Cc1ccc(S(=O)(=O)Nc2cccc(-c3c(C#CCCO)sc(-c4ccc(F)cc4)c3-c3ccncc3)c2)cc1 [Compound 3.45, N-(3-(5-(4-fluorophenyl)-2-(4-hydroxybut-1-yn-1-yl)-4-(pyridin-4-yl)thiophen-3-yl)phenyl)-4-methylbenzenesulfonamide]
 | > 10 |  | > 10 | Cc1ccc(S(=O)(=O)Nc2ccc(-c3c(C#CCCO)sc(-c4ccc(F)cc4)c3-c3ccncc3)cc2)cc1 [Compound 3.46, N-(4-(5-(4-fluorophenyl)-2-(4-hydroxybut-1-yn-1-yl)-4-(pyridin-4-yl)thiophen-3-yl)phenyl)-4-methylbenzenesulfonamide]
 | > 10 |  | 1.8 ± 0.4 | N#Cc1cccc(-c2c(C#CCCO)sc(-c3ccc(F)cc3)c2-c2ccncc2)c1 [Compound 3.47, 3-(5-(4-Fluorophenyl)-2-(4-hydroxybut-1-yn-1-yl)-4-(pyridin-4-yl)thiophen-3-yl)benzonitrile]
 | > 10 |  | > 10 | Cc1cccc(-c2c(C#CCCO)sc(-c3ccc(F)cc3)c2-c2ccncc2)c1 [Compound 3.48, 4-(5-(4-Fluorophenyl)-4-(pyridin-4-yl)-3-(m-tolyl)thiophen-2-yl)but-3-yn-1-ol]
 | > 10 |  | > 10 | CN(C)c1ccc(-c2c(C#CCCO)sc(-c3ccc(F)cc3)c2-c2ccncc2)cc1 [Compound 3.49, 4-(3-(4-(Dimethylamino)phenyl)-5-(4-fluorophenyl)-4-(pyridin-4-yl)thiophen-2-yl)but-3-yn-1-ol]
 | > 10 |  | 0.9 ± 0.4 | OCCC#Cc1sc(-c2ccc(F)cc2)c(-c2ccncc2)c1-c1ccc(F)cc1 [Compound 3.50, 4-(3,5-bis(4-Fluorophenyl)-4-(pyridin-4-yl)thiophen-2-yl)but-3-yn-1-ol]
 | > 10 |  | > 10 | OCCC#Cc1sc(-c2ccc(F)cc2)c(-c2ccncc2)c1-c1ccc(Cl)cc1 [Compound 3.51, 4-(3-(4-Chlorophenyl)-5-(4-fluorophenyl)-4-(pyridin-4-yl)thiophen-2-yl)but-3-yn-1-ol]
 | > 10 |  | > 10 | OCCC#Cc1sc(-c2ccc(F)cc2)c(-c2ccncc2)c1-c1ccc(C(F)(F)F)cc1 [Compound 3.52, 4-(5-(4-Fluorophenyl)-4-(pyridin-4-yl)-3-(4-(trifluoromethyl)phenyl)thiophen-2-yl)but-3-yn-1-ol]
 | > 10 |  | 2.2 ± 0.3 | CC(=O)c1ccc(-c2c(C#CCCO)sc(-c3ccc(F)cc3)c2-c2ccncc2)cc1 [Compound 3.53, 1-(4-(5-(4-Fluorophenyl)-2-(4-hydroxybut-1-yn-1-yl)-4-(pyridin-4-yl)thiophen-3-yl)phenyl)ethanone]
 | > 10 |  | 3.4 | OCCC#Cc1sc(-c2ccc(F)cc2)c(-c2ccncc2)c1-c1ccc(O)cc1 [Compound 3.54, 4-(5-(4-Fluorophenyl)-2-(4-hydroxybut-1-yn-1-yl)-4-(pyridin-4-yl)thiophen-3-yl)phenol]
 | > 10 |  | > 10 | OCCC#Cc1sc(-c2ccc(F)cc2)c(-c2ccncc2)c1I [Compound 3.55, 4-(5-(4-Fluorophenyl)-3-iodo-4-(pyridin-4-yl)thiophen-2-yl)but-3-yn-1-ol]
> 10 | > 10 |  |  | NCC#Cc1cc(-c2ccncc2)c(-c2ccc(F)cc2)s1 [Compound 5.6, 3-(5-(4-Fluorophenyl)-4-(pyridin-4-yl)thiophen-2-yl)prop-2-yn-1-amine]
